Data published in US9682931B2, “Aryloyl(oxy or amino)pentafluorosulfanylbenzene compound, pharmaceutically acceptable salt thereof, and prodrugs thereof” (UBE INDUSTRIES, LTD., priority 2013, dated 2017).
Converted amounts (≈) assume the structure as drawn.

Key:
[1] = system: Trichophyton mentagrophytes NBRC5466 (trichophyton); assay: Antifungal test, minimum inhibitory concentration (MIC), trichophyton; assay type: cell-based; conditions: NBRC5466, 168 h, 27±2° C., 7 days
Description: Antimicrobial/Antifungal Test
Measurement of the Minimum Inhibitory Concentration (MIC) of a Test Substance
The minimum inhibitory concentration (MIC) of test substances (Compound 3, Compound 7) on a microorganism was measured.
1) Test Microbe (a) Staphylococcus aureus MRSAIID 1677 (methicillin-resistant staphylococcus aureus; MRSA) (b) Trichophyton mentagrophytes NBRC5466 (trichophyton)
2) Preparation of Microbe Solution for Inoculation
Test microbe (b): A strain cryopreserved was applied on PDA medium and cultured at 27±2° C. for 7 days. Spores were scraped out and suspended in a test microbe preparation solution, filtered with absorbent cotton. The solution was prepared so as to have a number of spores of about 10^6 CFU/mL. The test microbe solution prepared was serially diluted by 10-fold and cultured at 27±2° C. for 7 days and then the microbe cells were counted.
3) Serial Dilution of Test Substance
Two-fold serial dilutions of a test substance were prepared in the following procedure. To a test substance (1 mg), a medium (5 mL) for measuring the sensitivity of each microbe strains was added to obtain a stock solution of 200 μg/mL. […]
A test microbe solution (5 μL) was added dropwise to individual wells of the microplate. […] After culture, whether the microbe proliferated or not was determined by the naked eye. […]

[2] = system: caspase 3/7 in A549 cells (human lung cancer, adenocarcinoma); assay: Test of inducing apoptosis of A549 cells (caspase 3/7 activity); assay type: cell-based; conditions: 5 hours
Description: (Test of Inducing Apoptosis of A549 Cells (Human Lung Cancer, Adenocarcinoma))
To evaluate apoptosis induction of a sample (Compound 3), the activity of caspase 3/7 was measured.
1. Measurement Reagents, Equipment and Instruments
APO-ONE Homogeneous Caspase-3/7 Assay (G7790, Lot No. 314408; Promega)
Fluorescence plate reader (SpectraMax GEMINI EM; Molecular Devices)
Cells: A549 cells (obtained from the Research Resource Bank of the Human Sciences Foundation)
Medium: 10% FBS and 0.1 mmol/L Non-Essential Amino Acids Solution-containing MEM medium
A 1 mmol/L solution prepared with DMSO was prepared with a medium so as to have a final concentration (the final concentration of DMSO was set to be 0.1%).
A sample was weighed and a medium was added so as to obtain 500 μg/mL. While warming at 37° C., sonication was performed for 60 minutes to make dissolution. Filtration was performed by a 0.22 μm-filter. The 500 μg/mL solution was subjected to serial dilution in a common ratio of 10 with the medium to prepare 50, 5, 0.5, 0.05 and 0.005 μg/mL.
(1) (The day before test)
On a 96-well plate, A549 cells were seeded in a ratio of 10000 cells/100 μL/well. […]
(4) Reaction was performed at room temperature while blocking light. Two hours later, fluorescence was measured (excitation wavelength: 499 nm, fluorescence wavelength: 521 nm)

[3] = system: TNF-α mRNA expression in RBL-2H3 cells; assay: Validation test in RBL-2H3 cell: TNF-α mRNA expression by antigen stimulation (Real-time PCR); assay type: cell-based, Rat; conditions: for TNF-α mRNA expression level: untreated control as 100
Description: 2. Validation Test in RBL-2H3 Cell
(Effect on Inflammation Mediator mRNA Expression by Antigen Stimulation)
After a cell model for an allergic reaction, RBL-2H3 cells, were stimulated by an antigen, mRNA expression level of a typical inflammation mediator, TNF-α, in the cell was measured by a Real-time PCR method. In this manner, a confirmation test for anti-inflammatory effect of Compound 3 was performed.
A test substance (Compound 3) (50 mg) was dissolved by adding 50 vol % ethanol (1 mL) to this to obtain an ethanol solution having a concentration of 50 mg/mL. The resultant solution was diluted with a medium. […] As a control (for comparison), Wortmannin (10 μM) was used. Herein, the concentrations were all indicated as the concentrations in cell supernatants.
RBL-2H3 cells were sensitized with anti-DNP-IgE antibody for 2 hours. A medium or a test solution was added and heat was applied at 37° C. for 10 minutes and then, a DNP-HSA solution was added. A reaction was carried out at 37° C. for 30 minutes. After completion of the reaction, total RNA was extracted from a cell fraction and cDNA was synthesized by use of Random Primer and Reverse Transcriptase. After a specific primer for a desired gene (ITNF-α,β-actin) was added, a Real-time PCR method was carried out in accordance with SYBR Green method using the resultant cDNA as a template to determine the expression level of mRNA. The expression ratio of the desired gene relative to a housekeeping gene, β-actin, was calculated. In this manner, a change in expression level relative to an untreated control was calculated.
Main test conditions and outline of the operation will be described below.
Cell: Rat basophil leukemic cell, RBL-2H3 [Human Sciences Foundation]
Antigen stimulation: Anti-DNP-IgE antibody, DNP labeled albumin
[Sigma-Aldrich Corporation]
Desired genes: IL-4, MCP-1, TNF-α, β-actin (housekeeping gene)
Measurement apparatus: StepOnePlus Real-Time PCR System [Life
Technologies Corporation] Measurement conditions: 95° C. (20 sec)→{95° C. (3 sec)→60° C. (30 sec)}×40 cycles
mRNA expression level (%) was obtained based on the expression level of the untreated control as 100.

| SMILES | MIC [1] | caspase 3/7 activity ([2]; 0.005 μg/mL to 5 μg/mL) | caspase 3/7 activity ([2]; all concentrations 0.005 μg/mL to 500 μg/mL) | suppression of TNF-α mRNA expression ([3]; RBL-2H3 cells, antigen stimulation) | TNF-α mRNA expression level ([3]; sample 1 μg/mL) | TNF-α mRNA expression level ([3]; sample 10 μg/mL) |
| --- | --- | --- | --- | --- | --- | --- |
| O=C(Oc1ccc(S(F)(F)(F)(F)F)cc1)c1cc(O)c(O)c(O)c1 [Compound 7, 4-(3,4,5-trihydroxybenzoyloxy)pentafluorosulfanylbenzene] | 6.3 µg/mL (≈ 16.9 µM) |  |  |  |  |  |
| O=C(Nc1ccc(S(F)(F)(F)(F)F)cc1)c1cc(O)c(O)c(O)c1 [Compound 3, 4-(3,4,5-trihydroxybenzoylamino)pentafluorosulfanylbenzene] |  | high activity was observed | tends to enhance caspase 3/7 activity | Suppression of the mRNA expression TNF-α, one of inflammatory mediators, was confirmed | 87% | 69% |
